{"source": "patent US20100273701A1", "about": "“USE OF SALUSIN BETA ALONE OR IN COMBINATION WITH OCTREOTIDE AS A THERAPEUTIC AGENT” (priority 2007, published 2010)", "tested_on": "drug-resistant Mycobacterium tuberculosis", "conditions": "10 micrograms per ml; seven days; strain resistant to PAS, streptomycin and isoniazid"}
{"molecule": "Ala-lle-Phe-Ile-Phe-Ile-Arg-Trp-Leu-Leu-Lys-Leu-Gly-His-His-Gly-Arg-Ala-Pro-Pro-OH [Peptide 1]", "values": [{"measurement": "inhibition of the growth of Mycobacterium tuberculosis", "value": 100, "unit": "%"}]}
{"molecule": "C[C@@H](O)[C@@H]1NC(=O)[C@H](CCCCN)NC(=O)[C@@H](Cc2c[nH]c3ccccc23)NC(=O)[C@H](Cc2ccccc2)NC(=O)[C@@H](NC(=O)[C@H](N)Cc2ccccc2)CSSC[C@@H](C(=O)N[C@H](CO)[C@@H](C)O)NC1=O", "note": "[Peptide 2, D-Phe-Cys-Phe-D-Trp-Lys-Thr-Cys-L-threoninol]", "values": [{"measurement": "inhibition of the growth of Mycobacterium tuberculosis", "value": 100, "unit": "%"}]}
